Consider 17 compounds from patent US12667572B2, “Tricyclic compounds useful in the treatment of cancer, autoimmune and inflammatory disorders” (SCHRÖDINGER, INC., priority 2021, dated 2026).

The target of this test is T1, full-length MALT1 protein His-MALT1(1-824) (Homo sapiens, UniProt Q9UDY8).
T1 construct: full-length MALT1 protein His-MALT1(1-824); His (N); made in house; host or cells: baculovirus-infected insect cells
T1 sequence (Q9UDY8 1-824): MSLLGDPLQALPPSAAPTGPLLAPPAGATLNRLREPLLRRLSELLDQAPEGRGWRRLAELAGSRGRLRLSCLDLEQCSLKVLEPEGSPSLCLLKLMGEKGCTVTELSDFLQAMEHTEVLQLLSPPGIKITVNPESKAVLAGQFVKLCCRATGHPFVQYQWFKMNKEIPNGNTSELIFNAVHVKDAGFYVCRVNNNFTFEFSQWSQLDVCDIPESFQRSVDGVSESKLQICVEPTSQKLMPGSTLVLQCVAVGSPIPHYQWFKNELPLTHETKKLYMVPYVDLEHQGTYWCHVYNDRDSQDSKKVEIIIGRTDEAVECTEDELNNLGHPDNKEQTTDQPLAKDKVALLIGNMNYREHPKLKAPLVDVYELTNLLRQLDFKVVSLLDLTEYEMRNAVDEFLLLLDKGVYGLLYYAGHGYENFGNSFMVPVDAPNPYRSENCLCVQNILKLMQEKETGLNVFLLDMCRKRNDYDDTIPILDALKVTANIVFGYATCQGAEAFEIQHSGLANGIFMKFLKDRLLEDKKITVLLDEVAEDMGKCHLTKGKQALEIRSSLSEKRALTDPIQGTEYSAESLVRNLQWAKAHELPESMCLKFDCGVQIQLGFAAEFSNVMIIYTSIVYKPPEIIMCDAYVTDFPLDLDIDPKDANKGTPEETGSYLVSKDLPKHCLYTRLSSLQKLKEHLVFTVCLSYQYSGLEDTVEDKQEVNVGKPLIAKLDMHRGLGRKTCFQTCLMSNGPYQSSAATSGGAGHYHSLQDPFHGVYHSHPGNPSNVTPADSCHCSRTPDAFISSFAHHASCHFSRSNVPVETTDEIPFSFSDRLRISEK
Briefly: MALT1 protease assay, Assay 2 (1 nM MALT1, Ac-LRSR-AMC substrate). In kind it is biochemical. The conditions noted are these: 1 nM MALT1, 50 μM Ac-LRSR-AMC, 2 h pre-incubation, 8 hr incubation at RT. Summed up:
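Full-length His-MALT1(1-824) from baculovirus-infected insect cells, pre-incubated with compound 2 h at RT (0.1% DMSO). Then 50 μM Ac-LRSR-AMC added. Buffer was Tris pH 7.5 with 600 mM sodium citrate, DTT, EDTA and BSA. Fluorescence (ex 355/em 460 nm) was read after 8 h at RT and normalized to high/low controls. IC50 from non-linear regression.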

Molecules are shown by their SMILES. Bounds are passed on as bounds.

What is called IC50 is the point on the concentration scale where inhibition reaches its midpoint. Higher therefore signals a need for much substance. For the compound `CC1(C)CC(C(=O)Nc2cnc(N=S(C)(C)=O)c(Cl)c2)c2cnc3cc(F)nn3c21` (single isomer, unassigned) [Example 132, N-(5-chloro-6-((dimethyl(oxo)-λ^6-sulfaneylidene)amino)pyridin-3-yl)-2-fluoro-8,8-dimethyl-7,8-dihydro-6H-cyclopenta[e]pyrazolo[1,5-a]pyrimidine-6-carboxamide], the IC50 fell in the range of 10 to 100 nM.

Compound `O=C(Nc1cnc(C(O)C(F)F)c(Cl)c1)C1CC2(CCC2)c2c1cnc1cc(F)nn21` (single isomer, unassigned) [Example 133, N-(5-chloro-6-(2,2-difluoro-1-hydroxyethyl)pyridin-3-yl)-2′-fluoro-6′,7′-dihydrospiro[cyclobutane-1,8′-cyclopenta[e]pyrazolo[1,5-a]pyrimidine]-6′-carboxamide] returned an IC50 of at least 1000 nM.

`O=C(Nc1cnc(C(O)C(F)F)c(Cl)c1)C1CC2(CCC2)c2c1cnc1cc(F)nn21` (single isomer, unassigned) [Example 134, N-(5-chloro-6-(2,2-difluoro-1-hydroxyethyl)pyridin-3-yl)-2′-fluoro-6′,7′-dihydrospiro[cyclobutane-1,8′-cyclopenta[e]pyrazolo[1,5-a]pyrimidine]-6′-carboxamide] displayed a concentration for half-maximal inhibition (IC50) of at least 1000 nM.

As to `O=C(Nc1cnc([C@@H](O)C(F)F)c(Cl)c1)[C@H]1CC2(CCC2)c2c1cnc1cc(F)nn21` (single isomer, unassigned) [Example 135, N-(5-chloro-6-(2,2-difluoro-1-hydroxyethyl)pyridin-3-yl)-2′-fluoro-6′,7′-dihydrospiro[cyclobutane-1,8′-cyclopenta[e]pyrazolo[1,5-a]pyrimidine]-6′-carboxamide], the half-maximal inhibitory concentration (IC50) fell in the range of 100 to 1000 nM.

Take `O=C(Nc1cnc([C@H](O)C(F)F)c(Cl)c1)[C@H]1CC2(CCC2)c2c1cnc1cc(F)nn21` (single isomer, unassigned) [Example 136, N-(5-chloro-6-(2,2-difluoro-1-hydroxyethyl)pyridin-3-yl)-2′-fluoro-6′,7′-dihydrospiro[cyclobutane-1,8′-cyclopenta[e]pyrazolo[1,5-a]pyrimidine]-6′-carboxamide]: the IC50 lay in the range of 100 to 1000 nM.

`CC1(C)C[C@](C)(C(=O)Nc2cnc(-n3nccn3)c(Cl)c2)c2cnc3cc(Cl)nn3c21` (single isomer, unassigned) [Example 138, 2-chloro-N-(5-chloro-6-(2H-1,2,3-triazol-2-yl)pyridin-3-yl)-6,8,8-trimethyl-7,8-dihydro-6H-cyclopenta[e]pyrazolo[1,5-a]pyrimidine-6-carboxamide] gave an IC50 of at least 1000 nM.

In the case of `CC1(C)CC(C)(C(=O)Nc2cnc(-n3nccn3)c(Cl)c2)c2cnc3cc(Cl)nn3c21` (single isomer, unassigned) [Example 139, 2-chloro-N-(5-chloro-6-(2H-1,2,3-triazol-2-yl)pyridin-3-yl)-6,8,8-trimethyl-7,8-dihydro-6H-cyclopenta[e]pyrazolo[1,5-a]pyrimidine-6-carboxamide], the half-inhibitory concentration (IC50) was at least 1000 nM.

In turn, `Cc1nnn(-c2ncc(NC(=O)[C@H]3CC(C)(C)c4c3cnc3cc(Cl)nn43)cc2Cl)n1` (single isomer, unassigned) [Example 140, 2-chloro-N-(5-chloro-6-(5-methyl-2H-tetrazol-2-yl)pyridin-3-yl)-8,8-dimethyl-7,8-dihydro-6H-cyclopenta[e]pyrazolo[1,5-a]pyrimidine-6-carboxamide] had a half-inhibitory concentration (IC50) of 100 to 1000 nM.

In turn, `Cc1nnn(-c2ncc(NC(=O)C3CC(C)(C)c4c3cnc3cc(Cl)nn43)cc2Cl)n1` (single isomer, unassigned) [Example 141, 2-chloro-N-(5-chloro-6-(5-methyl-2H-tetrazol-2-yl)pyridin-3-yl)-8,8-dimethyl-7,8-dihydro-6H-cyclopenta[e]pyrazolo[1,5-a]pyrimidine-6-carboxamide] showed a half-inhibitory concentration (IC50) of at least 1000 nM.

For the compound `Cn1nnc(-c2ncc(NC(=O)[C@@H]3CC(C)(C)c4c3cnc3cc(Cl)nn43)cc2Cl)n1` (single isomer, unassigned) [Example 142, 2-chloro-N-(5-chloro-6-(2-methyl-2H-tetrazol-5-yl)pyridin-3-yl)-8,8-dimethyl-7,8-dihydro-6H-cyclopenta[e]pyrazolo[1,5-a]pyrimidine-6-carboxamide], the IC50 is at least 1000 nM.

Consider `Cn1nnc(-c2ncc(NC(=O)C3CC(C)(C)c4c3cnc3cc(Cl)nn43)cc2Cl)n1` (single isomer, unassigned) [Example 143, 2-chloro-N-(5-chloro-6-(2-methyl-2H-tetrazol-5-yl)pyridin-3-yl)-8,8-dimethyl-7,8-dihydro-6H-cyclopenta[e]pyrazolo[1,5-a]pyrimidine-6-carboxamide], for which the 50% inhibitory concentration (IC50) lay within 100 to 1000 nM.

As for `Cn1nnnc1-c1ncc(NC(=O)[C@@H]2CC(C)(C)c3c2cnc2cc(Cl)nn32)cc1Cl` (single isomer, unassigned) [Example 144, 2-chloro-N-(5-chloro-6-(1-methyl-1H-tetrazol-5-yl)pyridin-3-yl)-8,8-dimethyl-7,8-dihydro-6H-cyclopenta[e]pyrazolo[1,5-a]pyrimidine-6-carboxamide], the IC50 was 10 to 100 nM.

Regarding `N#Cc1cc(NC(=O)[C@H]2CC3(CCOCC3)c3c2cnc2cc(F)nn32)cnc1OC(F)F` (single isomer, unassigned) [Example 146, N-(5-cyano-6-(difluoromethoxy)pyridin-3-yl)-2-fluoro-2′,3′,5′,6,6′,7-hexahydrospiro[cyclopenta[e]pyrazolo[1,5-a]pyrimidine-8,4′-pyran]-6-carboxamide], the 50% inhibitory concentration (IC50) lay within 10 to 100 nM.

`N#Cc1cc(NC(=O)C2CC3(CCOCC3)c3c2cnc2cc(F)nn32)cnc1OC(F)F` (single isomer, unassigned) [Example 147, N-(5-cyano-6-(difluoromethoxy)pyridin-3-yl)-2-fluoro-2′,3′,5′,6,6′,7-hexahydrospiro[cyclopenta[e]pyrazolo[1,5-a]pyrimidine-8,4′-pyran]-6-carboxamide] showed an IC50 of at least 1000 nM.

In the case of `O=C(Nc1cnc(-n2nccn2)c(C(F)(F)F)c1)C1CC2(CC2)c2c1cnc1cc(Cl)nn21` (single isomer, unassigned) [Example 148, N-(6-(2H-1,2,3-triazol-2-yl)-5-(trifluoromethyl)pyridin-3-yl)-2-chloro-6,7-dihydrospiro[cyclopenta[e]pyrazolo[1,5-a]pyrimidine-8,1′-cyclopropane]-6-carboxamide], the IC50 is at least 1000 nM.

The compound `CC1(C)C[C@@H](C(=O)Nc2cnc(-n3nccn3)c(C(F)(F)F)c2)c2cnc3cc(F)nn3c21` (single isomer, unassigned) [Example 150, N-(6-(2H-1,2,3-triazol-2-yl)-5-(trifluoromethyl)pyridin-3-yl)-2-fluoro-8,8-dimethyl-7,8-dihydro-6H-cyclopenta[e]pyrazolo[1,5-a]pyrimidine-6-carboxamide] returned an IC50 of 10 to 100 nM.

`CC(C)(O)c1ncc(NC(=O)[C@H]2CC3(CCC3)c3c2cnc2cc(F)nn32)cc1C(F)(F)F` (single isomer, unassigned) [Example 152, 2′-fluoro-N-(6-(2-hydroxypropan-2-yl)-5-(trifluoromethyl)pyridin-3-yl)-6′,7′-dihydrospiro[cyclobutane-1,8′-cyclopenta[e]pyrazolo[1,5-a]pyrimidine]-6′-carboxamide] displayed an IC50 of 100 to 1000 nM.
